Legend:
CCRF-CEM [1] = assay: Compound was evaluated for growth inhibition of parental CCRF-CEM during continuous (120 h) exposure to MTX; format: functional; conditions: Homo sapiens, read-out: ED50 (the source's name)
CCRF-CEM [2] = assay: Growth inhibition of CCRF-CEM subline resistant to MTX solely as a result of a 25-fold increase in wild-type DHFR activity during continuous (120 h) exposure to MTX; format: functional; conditions: Homo sapiens, read-out: ED50 (the source's name)
CCRF-CEM [3] = assay: Growth inhibition of CCRF-CEM subline resistant to MTX solely as a result of decreased MTX influx during continuous (120 h) exposure.; format: functional; conditions: Homo sapiens, read-out: ED50 (the source's name)
CCRF-CEM [4] = assay: Growth inhibition of CCRF-CEM subline resistant to MTX solely as a result of decreased polyglutamylation during continuous (120 h) exposure.; format: functional; conditions: Homo sapiens, read-out: ED50 (the source's name)
Dihydrofolate reductase = target: T1, Dihydrofolate reductase (Homo sapiens, UniProt P00374); assay: Inhibitory activity against purified human dihydrofolate reductase (DHFR) in human leukemia cells (CCRF-CEM)
T1 sequence (P00374 whole entry): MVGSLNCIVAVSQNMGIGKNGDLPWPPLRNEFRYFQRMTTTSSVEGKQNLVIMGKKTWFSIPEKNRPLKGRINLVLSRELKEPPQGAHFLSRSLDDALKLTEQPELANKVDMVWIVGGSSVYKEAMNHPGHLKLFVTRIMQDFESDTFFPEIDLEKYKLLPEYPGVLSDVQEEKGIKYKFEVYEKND

CCRF-CEM [5] = assay: cells; conditions: Homo sapiens, 3 h

| SMILES | EC50 (CCRF-CEM [1]) [nM] | EC50 (CCRF-CEM [2]) [nM] | EC50 (CCRF-CEM [3]) [nM] | EC50 (CCRF-CEM [4]) [nM] | IC50 (Dihydrofolate reductase) [nM] | IC50 (CCRF-CEM [5]) [nM] |
| --- | --- | --- | --- | --- | --- | --- |
| CN(Cc1cnc2nc(N)nc(N)c2n1)c1ccc(C(=O)NC(CC(F)(F)C(=O)O)C(=O)O)cc1 (stereo not drawn) | 29 | 700 | 2150 | 24.3 | 1530 |  |
| CN(Cc1cnc2nc(N)nc(N)c2n1)c1ccc(C(=O)N[C@@H](CCC(=O)O)C(=O)O)cc1 [METHOTREXATE] |  | 655 | 2550 |  |  |  |
| Nc1nc(N)c2nc(CNc3ccc(C(=O)N[C@@H](CCC(=O)O)C(=O)O)cc3)cnc2n1 [AMINOPTERIN] |  |  |  |  |  | 3000 |
